According to PMC7558399, “In Vitro Selective Growth-Inhibitory Activities of Phytochemicals, Synthetic Phytochemical Analogs, and Antibiotics against Diarrheagenic/Probiotic Bacteria and Cancer/Normal Intestinal Cells” (Pharmaceuticals, 2020):
In brackets after ≈: the same amount, converted by molar mass. Like-named read-outs stand apart in the source and are kept apart here.

Tests used:
Assay type in all cases: cell-based
[1] = system: Lactobacillus rhamnosus (CCM 7091); assay: Broth microdilution MIC, L. rhamnosus; settings: Lacticaseibacillus rhamnosus, CCM7091; Lactobacillus rhamnosus; growth inhibited by ≥80%; read-out: MIC
[2] = system: Listeria monocytogenes (ATCC 7644); assay: Broth microdilution MIC, L. monocytogenes; settings: ATCC7644, growth inhibited by ≥80%, read-out: MIC
[3] = system: Enterococcus faecalis (ATCC 29212); assay: Broth microdilution MIC, E. faecalis; settings: ATCC29212, growth inhibited by ≥80%, read-out: MIC
[4] = system: Escherichia coli (ATCC 25922); assay: Broth microdilution MIC, E. coli; settings: ATCC25922, growth inhibited by ≥80%, read-out: MIC
[5] = system: Bifidobacterium breve (ATCC 15700); assay: Broth microdilution MIC, B. breve; settings: ATCC15700, growth inhibited by ≥80%, read-out: MIC
[6] = system: probiotic bacteria (9 strains); assay: Broth microdilution MIC, probiotic bacteria as a group (mean or range over strains); settings: mean of 9 strains; >512 replaced with 1024; read-out: x¯ -PB ± SD: mean MIC for probiotic bacteria
[7] = system: Caco-2 (ATCC HTB 37) intestinal cancer cells; assay: MTT cytotoxicity assay, Caco-2; settings: Homo sapiens, Caco-2, MTT, 72 h; for IC50: read-out: IC50 ± SD; for IC80: read-out: IC80 ± SD (80% inhibitory concentration of proliferation)
[8] = system: Bifidobacterium longum ssp. longum (DSMZ 20219); assay: Broth microdilution MIC, B. longum ssp. longum; settings: DSMZ20219; Bifidobacterium longum ssp. longum; growth inhibited by ≥80%; read-out: MIC
[9] = system: Bacteroides fragilis (ATCC 25285); assay: Broth microdilution MIC, B. fragilis; settings: ATCC25285, growth inhibited by ≥80%, read-out: MIC
[10] = system: Yersinia enterocolitica (ATCC 9610); assay: Broth microdilution MIC, Y. enterocolitica; settings: ATCC9610, growth inhibited by ≥80%, read-out: MIC
[11] = system: Lactobacillus casei (DSMZ 20011); assay: Broth microdilution MIC, L. casei; settings: Lacticaseibacillus casei, DSMZ20011; Lactobacillus casei; growth inhibited by ≥80%; read-out: MIC
[12] = system: Vibrio parahaemolyticus (ATCC 17802); assay: Broth microdilution MIC, V. parahaemolyticus; settings: ATCC17802, growth inhibited by ≥80%, read-out: MIC
[13] = system: S. enterica ssp. enterica serovar Typhimurium (ATCC 14028); assay: Broth microdilution MIC, Salmonella Typhimurium; settings: Salmonella Typhimurium, growth inhibited by ≥80%, read-out: MIC
[14] = system: Bifidobacterium adolescentis (DSMZ 20087); assay: Broth microdilution MIC, B. adolescentis; settings: DSMZ20087, growth inhibited by ≥80%, read-out: MIC
[15] = system: diarrheagenic bacteria (12 strains); assay: organism not typed
[16] = system: intestinal cancer cells (HT29 and Caco-2); assay: MTT cytotoxicity assay, mean for intestinal cancer cells; settings: for IC50: mean of HT29 and Caco-2, >512 replaced with 1024, read-out: x¯ -CC ± SD: mean IC50 for intestinal cancer cells; for IC80: read-out: x¯ -CC ± SD: mean IC80 for intestinal cancer cells
[17] = system: Bacillus cereus (ATCC 14579); assay: Broth microdilution MIC, B. cereus; settings: median/mode, read-out: MIC
[18] = system: Salmonella enterica ssp. enterica serovar Enteritidis (ATCC 13076); assay: Broth microdilution MIC, Salmonella Enteritidis; settings: Salmonella Enteritidis, growth inhibited by ≥80%, read-out: MIC
[19] = system: Bifidobacterium bifidum (ATCC 29521); assay: Broth microdilution MIC, B. bifidum; settings: ATCC29521, growth inhibited by ≥80%, read-out: MIC
[20] = system: Clostridium perfringens (DSMZ 11778); assay: microbe, parasite or virus in culture; settings: DSMZ11778
[21] = system: E. coli 0175:H7 (NCTC 12900); assay: microbe, parasite or virus in culture; settings: Escherichia coli, NCTC12900
[22] = system: Bifidobacterium animalis spp. lactis (DSMZ 10140); assay: Broth microdilution MIC, B. animalis spp. lactis; settings: DSMZ10140; Bifidobacterium animalis spp. lactis; growth inhibited by ≥80%; read-out: MIC
[23] = system: FHs 74 Int (ATCC CCL 241) intestinal normal cells; assay: MTT cytotoxicity assay, FHs 74 Int; settings: 72 h, FHs 74 Int (intestinal normal cells), MTT; for IC50 / IC80: FHs74Int; for IC50: read-out: IC50 ± SD; for IC80: read-out: IC80 ± SD (80% inhibitory concentration of proliferation)
[24] = system: Lactobacillus reuteri (CCM 3625); assay: Broth microdilution MIC, L. reuteri; settings: Limosilactobacillus reuteri, CCM3625; Lactobacillus reuteri; growth inhibited by ≥80%; read-out: MIC
[25] = system: HT29 (ATCC HTB 38) intestinal cancer cells; assay: MTT cytotoxicity assay, HT29; settings: Homo sapiens, HT-29, HT29, MTT, 72 h; for IC50: read-out: IC50 ± SD; for IC80: read-out: IC80 ± SD (80% inhibitory concentration of proliferation)
[26] = system: Shigella flexneri (ATCC 12022); assay: microbe, parasite or virus in culture; settings: ATCC12022
[27] = system: Clostridium difficile (DSMZ 12056); assay: microbe, parasite or virus in culture; settings: Clostridioides difficile, DSMZ12056; Clostridium difficile; […]; read-out: MIC
[28] = ATCC14579, growth inhibited by ≥80%
[29] = mean of 12 strains, >512 replaced with 1024, read-out: x¯ -DB ± SD: mean MIC for diarrheagenic bacteria

Row | SMILES | MIC [1] [µg/mL] | MIC [2] [µg/mL] | MIC [3] [µg/mL] | MIC [4] [µg/mL] | MIC [5] [µg/mL] | MIC [6] [µg/mL] | MIC [8] [µg/mL] | MIC [9] [µg/mL] | MIC [11] [µg/mL] | MIC [12] [µg/mL] | MIC [14] [µg/mL] | MIC [19] [µg/mL] | MIC [21] [µg/mL] | MIC [22] [µg/mL] | IC50 [23] [µg/mL] | IC80 [23] [µg/mL] | MIC [24] [µg/mL] | IC50 [25] [µg/mL] | IC80 [25] [µg/mL] | MIC [26] [µg/mL] | also measured
1 | CN(C)[C@@H]1C(O)=C(C(N)=O)C(=O)[C@@]2(O)C(O)=C3C(=O)c4c(O)cccc4[C@@](C)(O)[C@H]3C[C@@H]12 [TC, tetracycline] | 8 (≈ 18 µM) | 2 (≈ 4.5 µM) | 4 (≈ 9 µM) | 1 (≈ 2.25 µM) | 16 (≈ 36 µM) | 19.8 ± 19 (≈ 44.6 µM) | 2 (≈ 4.5 µM) | 0.5 (≈ 1.13 µM) | 8 (≈ 18 µM) | 1 (≈ 2.25 µM) | 64 (≈ 144 µM) | 16 (≈ 36 µM) | 4 (≈ 9 µM) | 32 (≈ 72 µM) | 14.7 ± 2.3 (≈ 33.1 µM) | 108 ± 5 (≈ 243 µM) | 32 (≈ 72 µM) | 393 ± 20 (≈ 884 µM) | > 512 | 2 (≈ 4.5 µM) | IC50 [7]: 70.4 ± 15 µg/mL (≈ 158 µM); IC80 [7]: > 512 µg/mL; MIC [10]: 2 µg/mL (≈ 4.5 µM); MIC [13]: 4 µg/mL (≈ 9 µM); MIC ([15]; read-out: MICs): 1 to 4 µg/mL (≈ 2.25 to 9 µM); MIC ([15]; read-out: x¯ -DB ± SD: mean MIC for diarrheagenic bacteria): 4.8 ± 8 µg/mL (≈ 10.8 µM); IC50 [16]: 232 ± 161 µg/mL (≈ 521 µM); IC80 [16]: > 512 µg/mL; MIC [17, 28]: 0.5 µg/mL (≈ 1.13 µM); MIC [18]: 4 µg/mL (≈ 9 µM); MIC [20]: 32 µg/mL (≈ 72 µM)
2 | Cc1ncc([N+](=O)[O-])n1CCO [MA, metronidazole] | > 512 | 512 (≈ 2990 µM) | > 512 | 0.062 (≈ 0.362 µM) | 32 (≈ 187 µM) | 385 ± 458 (≈ 2250 µM) | 8 (≈ 46.7 µM) | 0.5 (≈ 2.92 µM) | > 512 | > 512 | 64 (≈ 374 µM) | > 512 | > 512 | 32 (≈ 187 µM) | > 512 | > 512 | 256 (≈ 1500 µM) | > 512 | > 512 | > 512 | IC50 [7]: > 512 µg/mL; IC80 [7]: > 512 µg/mL; MIC [10]: > 512 µg/mL; MIC [27]: 0.5 µg/mL (≈ 2.92 µM); MIC ([15]; both clostridial species tested, read-out: MICs): 0.5 to 8 µg/mL (≈ 2.92 to 46.7 µM); MIC [15, 29]: 651 ± 459 µg/mL (≈ 3810 µM); IC50 [16]: > 512 µg/mL; IC80 [16]: > 512 µg/mL; MIC ([17]; ATCC14579, […]): 128 µg/mL (≈ 748 µM); MIC [20]: 8 µg/mL (≈ 46.7 µM); IC50 ± SD [23]: - (Not active (MIC/IC50/80 > 512 μg/mL, the value 1024 μg/mL was used for average calculation)); IC80 ± SD (80% inhibitory concentration of proliferation) [23]: - (Not active (MIC/IC50/80 > 512 μg/mL, the value 1024 μg/mL was used for average calculation))
3 | O=C(O)c1cn(C2CC2)c2cc(N3CCNCC3)c(F)cc2c1=O [CP, ciprofloxacin] | 4 (≈ 12.1 µM) | 4 (≈ 12.1 µM) | 2 (≈ 6.04 µM) | 0.062 (≈ 0.187 µM) | 64 (≈ 193 µM) | 23.6 ± 18 (≈ 71.2 µM) | 16 (≈ 48.3 µM) | 8 (≈ 24.1 µM) | 32 (≈ 96.6 µM) | 0.062 (≈ 0.187 µM) | 8 (≈ 24.1 µM) | 16 (≈ 48.3 µM) | 0.016 (≈ 0.0483 µM) | 32 (≈ 96.6 µM) | 51.8 ± 27 (≈ 156 µM) | 130 ± 24 (≈ 391 µM) | 32 (≈ 96.6 µM) | 130 ± 13 (≈ 393 µM) | > 512 | 0.016 (≈ 0.0483 µM) | MIC [13]: 0.031 µg/mL (≈ 0.0936 µM); MIC ([15]; all gram-negative diarrheagenic bacteria, range over strains, read-out: MICs): 0.016 to 0.125 µg/mL (≈ 0.0483 to 0.377 µM); MIC ([15]; gram-positive pathogens, range over strains, read-out: MICs): 1 to 16 µg/mL (≈ 3.02 to 48.3 µM); MIC [15, 29]: 2 ± 4 µg/mL (≈ 6.04 µM); MIC [17, 28]: 1 µg/mL (≈ 3.02 µM); MIC [18]: 0.031 µg/mL (≈ 0.0936 µM)
